Test results as given in PMC11909324 (Journal of the Science of Food and Agriculture, 2024).
Where two headings read alike, the source gives them in different places.

Assays:
xanthine oxidase (XO) [1] = target: T1, xanthine oxidase (XO) (Bos taurus, UniProt P80457); assay: XO assay with xanthine as substrate (uric acid formation, HPLC-UV); type: biochemical, bovine;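 further: incubations in 0.05 mol L^−1 sodium phosphate buffer, with uric acid and remaining xanthine both quantified by HPLC-UV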
T1 construct: XO (from bovine milk); purchased Merck (Darmstadt, Germany); host or cells: bovine milk (natural source)

[2] = cited from earlier work
xanthine oxidase (XO) [3] = target: T1, xanthine oxidase (XO); assay: XO assay with 6MP as substrate (6-thiouric acid formation, HPLC-UV); type: biochemical, bovine; conditions: for decrease in 6-thiouric acid formation (inhibition of XO-catalyzed 6MP oxidation): inhibitor 20 μmol L^−1;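 on all read-outs here: incubation in 0.05 mol L^−1 sodium phosphate buffer, with 6MP and 6-thiouric acid quantified by HPLC-UV and conversion taken as the product share of substrate plus product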
[4] = cited from earlier work; remark: listed apart in the source
xanthine oxidase (XO) [5] = target: T1, xanthine oxidase (XO); assay: Fluorescence quenching studies of polyphenol-XO complexes; type: binding, bovine
Procedure: Increasing concentrations of polyphenols (0, 2, 4, 6, 8 and 10 μmol L^−1) were added to a standard amount of XO (0.4 μmol L^−1) in sodium phosphate buffer (0.05 mol L^−1, pH 7.5). Then, the emission spectra of XO were recorded using 280 nm excitation wavelength. The inner‐filter effects of silymarin components/metabolites were corrected based on the following equation[39], [41], [42]: (1) Icor=Iobs×e^Aex+Aem/2 where I cor is the corrected and I obs is the observed emission intensity; while A ex and A em are the absorbance of polyphenols at the excitation and emission wavelengths applied, respectively. Polyphenol‐induced fluorescence quenching was evaluated at 335 nm. Stern–Volmer quenching constants (K SV; unit: L mol^−1) of polyphenol–XO complexes were determined using the graphical application of the Stern–Volmer equation[43], [44], [45]: (2) I0/I=1+KSV×Q where I 0 and I are the emission signals of XO without and with the polyphenols tested, respectively, and [Q] denotes the molar concentration (mol L^−1) of the quencher (polyphenols). The binding constants (K; unit: L mol^−1) of polyphenol–XO complexes were calculated applying the modified Stern–Volmer equation[43], [44], [45]: (3) I0/I0−I=1/fa×K×1/Q+1/fa where I 0, I and [Q] have the same meaning as in Eqn (2), and f a is the fraction of the accessible fluorophore.

xanthine oxidase (XO) [6] = target: T1, xanthine oxidase (XO); assay: Reversibility of XO inhibition (preincubation, increasing xanthine concentrations); type: biochemical, bovine; conditions: SBS 5 μmol L^−1, DSC and DSCS 0.5 μmol L^−1; 10 min preincubation; xanthine 5, 25, 50 μmol L^−1
Procedure: After 8 min incubation (700 rpm, 37 °C), the reaction was stopped, and the samples were treated in the same way as described in the previous paragraph.

[7] = inhibitor 20 μmol L^−1, xanthine 5 μmol L^−1

T1 sequence (P80457 whole entry): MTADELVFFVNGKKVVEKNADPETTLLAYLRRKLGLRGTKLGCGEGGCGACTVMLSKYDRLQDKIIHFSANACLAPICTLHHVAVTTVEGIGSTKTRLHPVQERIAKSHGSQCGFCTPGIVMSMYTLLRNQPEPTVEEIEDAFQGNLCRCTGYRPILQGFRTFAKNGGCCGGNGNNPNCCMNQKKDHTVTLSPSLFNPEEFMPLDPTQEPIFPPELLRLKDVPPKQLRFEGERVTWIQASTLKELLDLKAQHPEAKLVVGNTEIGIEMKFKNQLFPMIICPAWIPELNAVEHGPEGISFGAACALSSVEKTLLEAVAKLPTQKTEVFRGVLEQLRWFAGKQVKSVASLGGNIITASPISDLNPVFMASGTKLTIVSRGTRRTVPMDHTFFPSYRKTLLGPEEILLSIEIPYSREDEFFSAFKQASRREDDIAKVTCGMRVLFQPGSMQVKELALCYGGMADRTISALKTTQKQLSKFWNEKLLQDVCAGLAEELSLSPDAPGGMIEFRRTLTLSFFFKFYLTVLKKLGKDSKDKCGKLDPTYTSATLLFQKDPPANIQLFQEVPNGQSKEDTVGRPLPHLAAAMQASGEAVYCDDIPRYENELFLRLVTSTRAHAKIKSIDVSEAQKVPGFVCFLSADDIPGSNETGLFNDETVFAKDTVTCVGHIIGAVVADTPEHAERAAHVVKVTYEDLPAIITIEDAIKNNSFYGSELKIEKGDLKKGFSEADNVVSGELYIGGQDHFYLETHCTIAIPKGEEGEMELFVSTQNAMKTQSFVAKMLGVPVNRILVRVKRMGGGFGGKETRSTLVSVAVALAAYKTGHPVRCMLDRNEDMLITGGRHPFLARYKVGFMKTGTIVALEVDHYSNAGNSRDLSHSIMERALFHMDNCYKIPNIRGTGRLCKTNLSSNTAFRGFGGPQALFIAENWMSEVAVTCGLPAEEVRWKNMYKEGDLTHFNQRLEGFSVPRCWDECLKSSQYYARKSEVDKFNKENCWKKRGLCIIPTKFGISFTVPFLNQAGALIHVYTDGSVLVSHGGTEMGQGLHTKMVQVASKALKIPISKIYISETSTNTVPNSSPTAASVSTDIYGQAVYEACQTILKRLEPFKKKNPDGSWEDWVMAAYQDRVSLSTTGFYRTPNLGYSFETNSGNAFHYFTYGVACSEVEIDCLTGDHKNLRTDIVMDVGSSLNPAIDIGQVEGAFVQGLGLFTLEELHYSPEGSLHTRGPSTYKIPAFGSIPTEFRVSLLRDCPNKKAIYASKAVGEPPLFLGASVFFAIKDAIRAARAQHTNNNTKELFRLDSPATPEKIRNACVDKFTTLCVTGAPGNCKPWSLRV

Structure (SMILES): O=C(O)[C@H]1O[C@@H](Oc2cc(O)cc(/C=C/c3ccc(O)cc3)c2)[C@H](O)[C@@H](O)[C@@H]1O [R3G, resveratrol‐3‐glucuronide]
- decrease in uric acid production (inhibition of XO-catalyzed xanthine oxidation) (xanthine oxidase (XO) [1]; [7]): 10%
- peak plasma concentrations ([2]; in vivo): 10 to 20 µmol/L
- decrease in 6-thiouric acid formation (inhibition of XO-catalyzed 6MP oxidation) (xanthine oxidase (XO) [3]; 6MP 5 μmol L^−1): not significant

Structure (SMILES): O=S(=O)(O)Oc1cc(O)cc(C=Cc2ccc(O)cc2)c1 [R3S, resveratrol‐3‐sulfate]
- inhibition at 20 µM (xanthine oxidase (XO) [1]; inhibitor 20 μmol L^−1, xanthine 5 μmol L^−1, read-out: decrease in uric acid production (inhibition of XO-catalyzed xanthine oxidation)): 27%
- peak plasma concentrations ([2]; humans, peroral high doses (0.5–5.0 g) of RES): 10 to 20 µmol/L
- decrease in 6-thiouric acid formation (inhibition of XO-catalyzed 6MP oxidation) (xanthine oxidase (XO) [3]; 6MP 5 μmol L^−1): weak to moderate inhibitors

Structure (SMILES): Oc1ccc(/C=C/c2cc(O)cc(O)c2)cc1 [RES, resveratrol]
- decrease in 6-thiouric acid formation (inhibition of XO-catalyzed 6MP oxidation) (xanthine oxidase (XO) [3]; 6MP 5 μmol L^−1): weak to moderate inhibitors
- oral bioavailability [4]: less than 1%

Structure (SMILES): COc1cc([C@@H]2Oc3cc([C@H]4Oc5cc(O)cc(O)c5C(=O)[C@@H]4O)ccc3O[C@H]2CO)ccc1OS(=O)(=O)O [SBS, silybin B‐20‐O‐sulfate]
- IC50 (xanthine oxidase (XO) [1]; XO 0.0003 U mL^−1, xanthine 5 μmol L^−1, 8 min, 37 °C, pH 7.5, read-out: IC50, xanthine oxidation): 0.24 µM
- XO-catalyzed uric acid formation (xanthine oxidase (XO) [1]; inhibitor 5 μmol L^−1, xanthine 5 μmol L^−1): almost completely abolished
- decrease in uric acid production (inhibition of XO-catalyzed xanthine oxidation) (xanthine oxidase (XO) [1]; [7]): more than 80%
- α = IC50 of flavonoid/IC50 of positive control, xanthine oxidation (xanthine oxidase (XO) [1]; relative to APU): 0.92
- Log K SV ± SEM (Stern–Volmer quenching constant) (xanthine oxidase (XO) [5]; K SV in L mol^−1, λex 280 nm, λem 335 nm, XO 0.4 μmol L^−1, pH 7.5): 4.63 ± 0.01
- Log K ± SEM (binding constant, modified Stern–Volmer) (xanthine oxidase (XO) [5]; association constant K in L mol^−1, λex 280 nm, λem 335 nm, XO 0.4 μmol L^−1, pH 7.5): 5.05 ± 0.02
- K (binding constant) of polyphenol–XO complex (xanthine oxidase (XO) [5]; fluorescence quenching): above 10^5 L mol^−1
- reversibility of the inhibitory action on XO (xanthine oxidase (XO) [6]): reversible
- IC50 (xanthine oxidase (XO) [3]; XO 0.01 U mL^−1, 6MP 5 μmol L^−1, 25 min, 37 °C, pH 7.5, read-out: IC50, 6MP oxidation): 0.57 µM
- fold stronger inhibition than APU, 6MP assay (xanthine oxidase (XO) [3]; based on IC50 values): ~7 fold
- XO-catalyzed 6-thiouric acid formation (xanthine oxidase (XO) [3]; inhibitor 5 μmol L^−1, 6MP 5 μmol L^−1): almost completely abolished
- IC50(6MP)/IC50(xanthine) (xanthine oxidase (XO) [3]; ratio of IC50 values with the two substrates): 2.4
- α = IC50 of flavonoid/IC50 of positive control, 6MP oxidation (xanthine oxidase (XO) [3]; relative to APU): 0.14
